{
  "source": "patent EP0171942A1",
  "about": "“Antitumor composition” (Takeda Chemical Industries, Ltd., priority 1984, dated 1986)",
  "key": {"Lewis lung carcinoma": {"system": "Lewis lung carcinoma", "assay": "Antitumor effect test using Lewis lung carcinoma (subcutaneous tumor fragment implant, tumor weight on day 10)", "type": "in vivo, mouse", "conditions": "oral, once daily for 7 days", "method": "The antitumor composition according to the invention was tested for antitumor effect using Lewis lung carcinoma. Thus, each female Fl mouse [C57BL/6 x DBA/2] weighing 18 ± 1 .g was implanted with a tumor fragment about 2 mm^3 in volume subcutaneously into the axillary site using a trocar. Starting from 24 hours after tumor implantation, the above- mentioned compound 4 and uracil were orally administered combinedly in the proportion given below in Table 1 once daily for 7 days, and the antitumor effect was compared with that attained when each of them was administered singly. The sample agent was suspended in a 0.5% solution of gum arabic in physiological saline just before daily administration such that the dose amounted to 0.2 ml/20 g body weight. Ten days after tumor implantation, the tumor was excised and weighed, and the average tumor weight ratio (T/C %) between the dosed group (T, group of 5 animals) and the control group (C, group of 10 animals) was calculated. The daily dose was expressed in terms of number of moles per kilogram of body weight (mM/kg)."}, "colon carcinoma 26": {"system": "colon carcinoma 26", "assay": "Antitumor effect test using colon carcinoma 26 (subcutaneous tumor fragment implant, tumor weight on day 10)", "type": "in vivo, mouse", "conditions": "oral, once a day for 7 days", "method": "The antitumor composition according to the invention was further tested for antitumor effect using colon carcinoma 26. Thus, each female F1 mouse [BALB/c x DBA/2] weighing 21 ± 1 g was subcutaneously implanted with a tumor fragment (about 2 mm3) into the axillary site using a trocar. Starting from 24 hours after tumor implantation, the above- mentioned compound 4 and uracil were orally administered combinedly on the proportion given below in Table 2 once a day for 7 days, and the antitumor effect was compared with that attained by single administration of either of them. The test agent was suspended in a 0.5% solution of gum arabic in physiological saline daily just before administration such that the dose amounted to 0.2 ml/20 g body weight. Ten days after tumor implantation, the tumor was excised and weighed, and the average tumor weight ratio (T/C %) between the dosed group (T, group of 5 animals) and the control group (C, group of 20 animals) was calculated. The daily dose was expressed in terms of number of moles per kilogram of body weight (mM/kg)."}, "[1]": {"conditions": "compound 4 0.1 mM/kg alone, tumor excised 10 days after implantation"}, "[2]": {"conditions": "compound 4 0.2 mM/kg alone, day 10"}, "[3]": {"conditions": "compound 4 0.4 mM/kg alone, day 10"}, "[4]": {"conditions": "compound 4 0.8 mM/kg alone, day 10"}},
  "data": [
    {"smiles": "CC(C)COC(=O)C1(F)C(=O)NC(=O)NC1O/N=C/c1ccco1", "note": "(centres unmarked) [compound 4, Isobutyl 5-fluoro-4-[(E)-furfurylideneaminooxy]-2,6-dioxohexahydropyrimidine-5-carboxylate]", "values": [
      {"measurement": "T/C", "setting": "Lewis lung carcinoma; [1]", "value": 54, "unit": "%"},
      {"measurement": "Tumor weight", "setting": "Lewis lung carcinoma; [1]", "value": 138, "unit": "mg"},
      {"measurement": "T/C", "setting": "Lewis lung carcinoma; [2]", "value": 42, "unit": "%"},
      {"measurement": "Tumor weight", "setting": "Lewis lung carcinoma; [2]", "value": 107, "unit": "mg"},
      {"measurement": "T/C", "setting": "Lewis lung carcinoma; [3]", "value": 31, "unit": "%"},
      {"measurement": "Tumor weight", "setting": "Lewis lung carcinoma; [3]", "value": 80, "unit": "mg"},
      {"measurement": "T/C", "setting": "Lewis lung carcinoma; [4]", "value": 19, "unit": "%"},
      {"measurement": "Tumor weight", "setting": "Lewis lung carcinoma; [4]", "value": 49, "unit": "mg"},
      {"measurement": "T/C", "setting": "colon carcinoma 26; [1]", "value": 96, "unit": "%"},
      {"measurement": "Tumor weight", "setting": "colon carcinoma 26; [1]", "value": 190, "unit": "mg"},
      {"measurement": "T/C", "setting": "colon carcinoma 26; [2]", "value": 29, "unit": "%"},
      {"measurement": "Tumor weight", "setting": "colon carcinoma 26; [2]", "value": 57, "unit": "mg"},
      {"measurement": "T/C", "setting": "colon carcinoma 26; [3]", "value": 1, "unit": "%"},
      {"measurement": "Tumor weight", "setting": "colon carcinoma 26; [3]", "value": 2, "unit": "mg"},
      {"measurement": "T/C", "setting": "colon carcinoma 26; [4]", "value": 0, "unit": "%"},
      {"measurement": "Tumor weight", "setting": "colon carcinoma 26; [4]", "value": 0, "unit": "mg"}
    ]},
    {"smiles": "O=c1cc[nH]c(=O)[nH]1", "note": "[uracil]", "values": [
      {"measurement": "T/C", "setting": "Lewis lung carcinoma; uracil 0.4 mM/kg alone, day 10", "value": 125, "unit": "%"},
      {"measurement": "Tumor weight", "setting": "Lewis lung carcinoma; uracil 0.4 mM/kg alone, day 10", "value": 319, "unit": "mg"},
      {"measurement": "T/C", "setting": "Lewis lung carcinoma; uracil 0.8 mM/kg alone, day 10", "value": 224, "unit": "%"},
      {"measurement": "Tumor weight", "setting": "Lewis lung carcinoma; uracil 0.8 mM/kg alone, day 10", "value": 572, "unit": "mg"},
      {"measurement": "T/C", "setting": "Lewis lung carcinoma; uracil 1.6 mM/kg alone, day 10", "value": 197, "unit": "%"},
      {"measurement": "Tumor weight", "setting": "Lewis lung carcinoma; uracil 1.6 mM/kg alone, day 10", "value": 502, "unit": "mg"},
      {"measurement": "T/C", "setting": "Lewis lung carcinoma; uracil 3.2 mM/kg alone, day 10", "value": 169, "unit": "%"},
      {"measurement": "Tumor weight", "setting": "Lewis lung carcinoma; uracil 3.2 mM/kg alone, day 10", "value": 432, "unit": "mg"},
      {"measurement": "T/C", "setting": "colon carcinoma 26; uracil 0.4 mM/kg alone, day 10", "value": 113, "unit": "%"},
      {"measurement": "Tumor weight", "setting": "colon carcinoma 26; uracil 0.4 mM/kg alone, day 10", "value": 223, "unit": "mg"},
      {"measurement": "T/C", "setting": "colon carcinoma 26; uracil 0.8 mM/kg alone, day 10", "value": 87, "unit": "%"},
      {"measurement": "Tumor weight", "setting": "colon carcinoma 26; uracil 0.8 mM/kg alone, day 10", "value": 173, "unit": "mg"},
      {"measurement": "T/C", "setting": "colon carcinoma 26; uracil 1.6 mM/kg alone, day 10", "value": 86, "unit": "%"},
      {"measurement": "Tumor weight", "setting": "colon carcinoma 26; uracil 1.6 mM/kg alone, day 10", "value": 170, "unit": "mg"},
      {"measurement": "T/C", "setting": "colon carcinoma 26; uracil 3.2 mM/kg alone, day 10", "value": 98, "unit": "%"},
      {"measurement": "Tumor weight", "setting": "colon carcinoma 26; uracil 3.2 mM/kg alone, day 10", "value": 194, "unit": "mg"}
    ]}
  ]
}
